SMILES strings stand for the structures. ≈ marks a conversion by molar mass, not a printed value. Where “and” joins values, the source holds several entries; their conditions need not be identical. Equal values may be shown once.

We go through four compounds from DBAASP.

What all share (experiment): ≥ marks a high value that may be exact or a test limit, other limits are often not marked, values filed in µg/mL are converted to µM
Test [1] concerns Salmonella enterica subsp. enterica serovar Choleraesuis CMCC 50020.
Test [2] concerns Staphylococcus aureus ATCC 25923.
Test [3] has as its system Bacillus subtilis 1A751.
Test [4] relates to Escherichia coli ATCC 25922.
In test [5] the test system is Pseudomonas aeruginosa.
Test [6] deals with Staphylococcus epidermidis.
The test system of test [7] is Listeria monocytogenes NCTC 7973.
The test system of test [8] is Acinetobacter baumannii.
For test [9], the system named is Streptococcus pyogenes ATCC 19615.
The test system of test [10] is Salmonella typhimurium.
Test [11] deals with Staphylococcus aureus ATCC 43300.
Test [12] has as its system Escherichia coli.
The subject of test [13] is Corynebacterium xerosis.
The test system of test [14] is Staphylococcus aureus SAP 0017.
Test [15] deals with Staphylococcus haemolyticus.
Test [16] concerns Staphylococcus aureus ATCC 8530.
The test system of test [17] is Escherichia coli DH5alpha.
Test [18] relates to Escherichia coli W160-37.
Test [19] relates to Klebsiella pneumoniae.
In test [20] the test system is Enterococcus faecalis.
The test system of test [21] is Enterococcus faecalis ATCC 29212.
Test [22] has as its system Saccharomyces cerevisiae PEP 4/3l.
For test [23], the system named is Pseudomonas syringae pv. tabaci 1918NCPPB.
Test [24] concerns Pseudomonas aeruginosa ATCC 15692.
Test [25] concerns Bacillus megaterium Bm11.
The subject of test [26] is Streptococcus pyogenes ATCC 21547.
In test [27] the test system is Saccharomyces cerevisiae.
For test [28], the system named is Candida albicans ATCC 10231.
Test [29] concerns Staphylococcus aureus Cowan 1.
For test [30], the system named is Staphylococcus epidermidis ATCC 12228.
The subject of test [31] is Yersinia pseudotuberculosis YPIII.
Test [32] deals with Pseudomonas aeruginosa ATCC 27853.
Test [33] relates to Schizosaccharomyces pombe.
Test [34] concerns Staphylococcus capitis 1.
For test [35], the system named is Acinetobacter junii RT-4.
For test [36], the system named is Escherichia coli D21.
Test [37] deals with Acinetobacter baumannii ATCC 19606.
The subject of test [38] is Enterobacter cloacae subsp. cloacae AB2010162.
For test [39], the system named is Pseudomonas fluorescens.
Test [40] deals with Staphylococcus aureus AB94004.
Test [41] deals with Pseudomonas putida.
Test [42] has as its system Escherichia coli JM109.
The subject of test [43] is Salmonella enterica AB2010185.
Test [44] relates to Klebsiella oxytoca AB2010143.
The subject of test [45] is Bacillus thuringiensis AB93100.
The subject of test [46] is Candida tropicalis AY91009.
Test [47] has as its system Bacillus magaterium AB90008.

As to `CC[C@H](C)[C@H](NC(=O)[C@H](CCCCN)NC(=O)[C@H](CC(=O)O)NC(=O)[C@H](CC(C)C)NC(=O)[C@@H](NC(=O)[C@H](CC(N)=O)NC(=O)[C@H](CC(C)C)NC(=O)[C@H](Cc1ccccc1)NC(=O)[C@H](Cc1ccccc1)NC(=O)[C@H](CCCCN)NC(=O)[C@H](CCCCN)NC(=O)CNC(=O)[C@H](C)NC(=O)[C@H](CCC(N)=O)NC(=O)[C@H](CCCCN)NC(=O)[C@@H](NC(=O)[C@@H](NC(=O)[C@H](CC(=O)O)NC(=O)[C@H](Cc1c[nH]c2ccccc12)NC(=O)[C@H](CC(C)C)NC(=O)CN)[C@@H](C)O)[C@@H](C)CC)C(C)C)C(=O)N[C@@H](CCCN=C(N)N)C(=O)N[C@H]1CSSC[C@@H](C(=O)N[C@@H](CCCN=C(N)N)C(=O)N[C@H](C(=O)O)[C@@H](C)O)NC(=O)CNC(=O)CNC(=O)[C@H](C)NC(=O)[C@H](C(C)C)NC(=O)[C@H](CCCCN)NC1=O` [GLWDTIKQAGKKFFLNVLDKIRCKVAGGCRT], the MIC in [1] was ≥ 36.9 µM; in [2], 4.61 µM (≈ 16 µg/mL); in [3], 1.15 µM (≈ 4 µg/mL); in test [4], 4.61 µM (≈ 16 µg/mL).
For `CC[C@H](C)[C@H](N)C(=O)N[C@@H](CC(C)C)C(=O)N[C@@H](C)C(=O)N[C@@H](Cc1c[nH]c2ccccc12)C(=O)N[C@@H](CCCCN)C(=O)N[C@@H](Cc1c[nH]c2ccccc12)C(=O)N[C@@H](C)C(=O)N[C@@H](Cc1c[nH]c2ccccc12)C(=O)N[C@@H](Cc1c[nH]c2ccccc12)C(=O)N[C@@H](C)C(=O)N[C@@H](Cc1c[nH]c2ccccc12)C(=O)N[C@@H](CCCN=C(N)N)C(=O)N[C@@H](CCCN=C(N)N)C(N)=O` [ILAWKWAWWAWRR], the MIC was > 100 µM in test [5]; 1.09 µM (≈ 2 µg/mL) in test [6]; 0.547 µM (≈ 0.999 µg/mL) in test [7]; 5.6 µM (≈ 10.2 µg/mL) in test [8]; 0.547 µM (≈ 0.999 µg/mL) in test [9]; ≥ 50 µM in test [10]. For the same compound, the MIC in [11] was 14.7 µM (≈ 26.9 µg/mL); in [12] it was 4.37 µM (≈ 8 µg/mL); in test [13] it was 0.547 µM (≈ 0.999 µg/mL); in test [2] it was 2.19 µM (≈ 4 µg/mL); in [14], 2.19 µM (≈ 4 µg/mL); in test [15], 1.09 µM and 0.547 µM. The MIC is 1.55 µM (≈ 2.83 µg/mL) in test [16]; ≥ 45 µM in [17]; 12.2 µM (≈ 22.3 µg/mL) in test [18]; 50 µM (≈ 91.4 µg/mL) in test [19]; 2 µM (≈ 3.66 µg/mL) in test [20]; 4.37 µM (≈ 8 µg/mL) in test [21]. Besides, the MIC in test [22] is 6.7 µM (≈ 12.2 µg/mL); in test [4] it was 14.7 µM (≈ 26.9 µg/mL).
In the case of `CC(C)C[C@H](NC(=O)[C@H](CC(C)C)NC(=O)[C@H](CCCN=C(N)N)NC(=O)CNC(=O)[C@H](CC(C)C)NC(=O)[C@H](CC(C)C)NC(=O)[C@H](CCCCN)NC(=O)[C@H](CO)NC(=O)[C@H](CC(C)C)NC(=O)[C@H](Cc1c[nH]c2ccccc12)NC(=O)[C@H](CCC(N)=O)NC(=O)[C@H](CC(C)C)NC(=O)[C@@H](N)CC(C)C)C(N)=O` [LLQWLSKLLGRLL], the MIC in [23] worked out at 6 µM (≈ 9.31 µg/mL); in [24] it was 12 µM (≈ 18.6 µg/mL); in test [25], 1.5 µM (≈ 2.33 µg/mL); in test [26], 6 µM (≈ 9.31 µg/mL); in [27], 3 µM (≈ 4.66 µg/mL); in test [28] it was 6 µM (≈ 9.31 µg/mL). In addition, the MIC in [29] is 1.5 µM (≈ 2.33 µg/mL); in test [30], 1.5 µM (≈ 2.33 µg/mL); in [31] it was 3 µM (≈ 4.66 µg/mL); in test [32] it was 24 µM (≈ 37.2 µg/mL); in test [33], 3 µM (≈ 4.66 µg/mL); in test [34] it was 1.5 µM (≈ 2.33 µg/mL). Moreover, the MIC is 3 µM (≈ 4.66 µg/mL) in test [2]; 24 µM (≈ 37.2 µg/mL) in test [35]; 12 µM (≈ 18.6 µg/mL) in test [36]; 3 µM (≈ 4.66 µg/mL) in [21]; 6 µM (≈ 9.31 µg/mL) in test [4]; 12 µM (≈ 18.6 µg/mL) in test [37].
For the compound `CC[C@H](C)[C@H](NC(=O)[C@H](CC(C)C)NC(=O)[C@H](CCCN=C(N)N)NC(=O)[C@H](CCCCN)NC(=O)[C@@H](NC(=O)[C@@H](NC(=O)CNC(=O)[C@H](CC(C)C)NC(=O)[C@H](CC(C)C)NC(=O)[C@H](CCCN=C(N)N)NC(=O)CNC(=O)[C@H](CO)NC(=O)[C@H](CCC(=O)O)NC(=O)[C@H](CCCN=C(N)N)NC(=O)[C@H](CCC(=O)O)NC(=O)[C@H](CCCCN)NC(=O)[C@H](CCC(=O)O)NC(=O)[C@H](CO)NC(=O)[C@@H](NC(=O)CNC(=O)[C@@H](N)CO)[C@@H](C)O)C(C)C)C(C)C)C(=O)N[C@H](C(=O)N[C@@H](CS)C(=O)N[C@@H](Cc1ccccc1)C(=O)N[C@@H](CCCN=C(N)N)C(=O)N[C@@H](CO)C(=O)N1CCC[C@H]1C(=O)N[C@@H](Cc1ccccc1)C(=O)N1CCC[C@H]1C(N)=O)C(C)C` [SGTSEKERESGRLLGVVKRLIVCFRSPFP], the MIC in test [38] is ≥ 47.9 µM; in test [39], 23.8 µM (≈ 77.3 µg/mL); in test [40], 23.6 µM (≈ 76.6 µg/mL); in test [41], 24 µM (≈ 77.9 µg/mL); in [42] it was ≥ 50.4 µM; in test [43], 25 µM (≈ 81.2 µg/mL). The MIC is ≥ 50.5 µM in test [44]; ≥ 51.2 µM in test [17]; ≥ 46.5 µM in [45]; ≥ 48.6 µM in [46]; 11.8 µM (≈ 38.3 µg/mL) in [47].
